Measurements: patent publication US5084082A, “Soybean plants with dominant selectable trait for herbicide resistance” (priority 1990, dated 1992)

How the values were obtained:
Format in all cases: in vivo, soybean
[1] = test system: mutant W19; assay: Test A postemergence herbicide spray, greenhouse pots
Description: (§1) In the first post-emergence test, two true-breeding resistant mutant lines, W19 and W20, were compared to previously isolated tolerant mutants and wild-type Williams 82. Eighteen pots (20 cm diameter) of each soybean line (2 seeds per pot) were planted using a standard sterile potting mix. When the seedlings reached the second trifoliolate stage, plants were thinned back to one plant per pot. Each pot was then sprayed with a specific herbicide treatment using a conveyor belt spray apparatus to emulate field application. The nine different herbicide treatments included one rate (8 g/ha) of Compound 1 and two rates (8 and 32 g/ha) each of four other sulfonylurea herbicides (Compounds 2,3,7 and 8) (see Table VI) using a factorial treatment design with 2 replications.
(§2) In both postemergence tests, plants were returned to the greenhouse after treatment and provided with ample light, moisture, and nutrients to support healthy plant growth. Two to three ratings per pot were recorded over a three-week period and averaged to obtain a single value for each pot For each herbicide, analysis of variance on injury ratings was performed separately. Fisher's least significant difference (LSD) was used to determine the significance of line mean differences at each herbicide rate using the 95% level of confidence. […]

[2] = test system: Mutant 1-184A; assay: as above
Description: as §1, §2

[3] = test system: Williams 82; assay: as above
Description: as §1, §2

[4] = test system: mutant W20; assay: as above
Description: as §1, §2

[5] = test system: mutant line W20; assay: Test B postemergence cross resistance test; settings: Glycine max, post-emergence; for percent crop injury at 16 g/ha: W20, 16 g/ha postemergence; for percent crop injury at 64 g/ha: W20, 64 g/ha postemergence
Description: (§3) In the second postemergence test, six true-breeding resistant mutant lines (W4, W17, W19, W20, W23, and W28) were compared to Williams 82 for cross resistance to a broad range of ALS inhibitors including eight sulfonylureas and three imidazolinones. Two seeds were planted in each 10 cm pot and allowed to grow to the second trifoliolate stage. Pots were not thinned back if both plants were at the proper stage. For each of 11 herbicides, two rates (Table VII) were selected based on previous data: the low rate was expected to cause significant injury (but not death) to Williams 82 and the high rate was expected to severely injure or kill Williams 82. All but a few line x rate treatments were replicated twice.
In both postemergence tests, plants were returned to the greenhouse after treatment and provided with ample light, moisture, and nutrients to support healthy plant growth. Two to three ratings per pot were recorded over a three-week period and averaged to obtain a single value for each pot For each herbicide, analysis of variance on injury ratings was performed separately. Fisher's least significant difference (LSD) was used to determine the significance of line mean differences at each herbicide rate using the 95% level of confidence.

[6] = test system: Williams 82; assay: Test B postemergence cross resistance test; settings: Glycine max, post-emergence
Description: as §3, §2

[7] = test system: mutant line W17; assay: Test B postemergence cross resistance test; settings: Glycine max, post-emergence; for soybean crop injury (%) at 16 g/ha: W17, 16 g/ha postemergence; for soybean crop injury (%) at 64 g/ha: W17, 64 g/ha postemergence
Description: as §3, §2

[8] = test system: mutant line W4; assay: Test B postemergence cross resistance test; settings: Glycine max, post-emergence; for % crop injury at 16 g/ha: W4, 16 g/ha postemergence; for % crop injury at 64 g/ha: W4, 64 g/ha postemergence
Description: as §3, §2

[9] = test system: mutant line W23; assay: Test B postemergence cross resistance test; settings: Glycine max, post-emergence; for percent soybean injury at 16 g/ha: W23, 16 g/ha postemergence; for percent soybean injury at 64 g/ha: W23, 64 g/ha postemergence
Description: as §3, §2

[10] = test system: mutant line W19; assay: Test B postemergence cross resistance test; settings: Glycine max, post-emergence; for percent soybean crop injury at 16 g/ha: W19, 16 g/ha postemergence; for percent soybean crop injury at 64 g/ha: W19, 64 g/ha postemergence
Description: as §3, §2

[11] = test system: mutant line W28; assay: Test B postemergence cross resistance test; settings: Glycine max, post-emergence; for mean % injury to soybean at 16 g/ha: W28, 16 g/ha postemergence; for mean % injury to soybean at 64 g/ha: W28, 64 g/ha postemergence
Description: as §3, §2

[12] = test system: Williams 82; assay: Test C preemergence (soil) sulfonylurea application; settings: 19 days after treatment
Description: (§4) W20, a line homozygous for a dominant sulfonylurea-resistance mutation, was compared to Williams 82 in terms of response to preemergence application of three sulfonylurea herbicides. The experimental unit consisted of a single 18 cm pot filled with soil (Sassafras loamy sand with 0.8% organic matter and pH 6.7) in which 6 seeds of a given soybean line were planted 2 cm deep. After planting, each pot was sprayed (using a conveyor belt spray apparatus to emulate field application) with one of 22 different treatments including a check sprayed with AGWT (90% acetone, 4% glycerol, 4% water, 2% Tween-20), and 21 different herbicide treatments using AGWT as a carrier. The herbicide treatments included 7 different concentrations (Table IX) each of three sulfonyl-ureas: Compound 5, Compound 4, and Compound 1. Each herbicide x line treatment was replicated three times. After herbicide treatment, pots were transferred to a greenhouse and arranged in a randomized complete block design. Nineteen days after treatment, each pot was rated visually for herbicide injury using the scale described previously. For each herbicide, analysis of variance on injury ratings was performed separately. Fisher's least significant difference (LSD) was used to determine the significance of line mean differences at each rate using the 95% level of confidence.

[13] = test system: W20; assay: as above; settings: 19 days after treatment
Description: as §4

[14] = test system: Mutant W4-4; assay: Postemergence herbicide spray test of W4-4 (Table VII-A); settings: two weeks after treatment
Protocol: (§5) To investigate this hypothesis, a postemergence herbicide spray test was conducted to compare the reaction of W4-4 to both W20 and wild-type Williams. The applicant was particularly interested in the resistance of W4-4 to herbicide treatments that were injurious to both Williams and W20 in a previous test (Table VII). […] Twenty-four plants each of W4-4, W20, and Williams were planted in separate 10 cm pots and allowed to grow to the second trifoliolate stage. Each pot constituted a single experimental unit receiving a single herbicide treatment. Herbicide treatments (Table VIIA) were applied as described for the first postemergence test and were replicated twice. Control plants were sprayed with the spray carrier solution only (water with 0.25% X77 surfactant). At two weeks after treatment, each plant was rated for % herbicide injury as described in Table VIII. Analysis of variance on injury ratings was performed separately for each herbicide to calculate treatment means and standard errors. Fisher's least significant difference (LSD) was used to determine the significance of line means differences at each herbicide rate using the 95% level of confidence. […]

[15] = test system: Williams 82; assay: as above; settings: two weeks after treatment
Protocol: as §5

[16] = test system: mutant W20; assay: as above; settings: two weeks after treatment
Protocol: as §5

Row | Structure (SMILES) | percent crop injury at 16 g/ha [5] [%] | percent crop injury at 64 g/ha [5] [%] | soybean crop injury (%) at 16 g/ha [7] [%] | soybean crop injury (%) at 64 g/ha [7] [%] | % crop injury at 16 g/ha [8] [%] | % crop injury at 64 g/ha [8] [%] | percent soybean injury at 16 g/ha [9] [%] | percent soybean injury at 64 g/ha [9] [%] | percent soybean crop injury at 16 g/ha [10] [%] | percent soybean crop injury at 64 g/ha [10] [%] | mean % injury to soybean at 16 g/ha [11] [%] | mean % injury to soybean at 64 g/ha [11] [%] | % Injury ([12]; WM 82, 1 g/ha preemergence) [%] | % Injury ([12]; WM 82, 3 g/ha preemergence) [%] | % Injury ([12]; WM 82, 10 g/ha preemergence) [%] | % Injury ([12]; WM 82, 30 g/ha preemergence) [%] | % Injury ([12]; WM 82, 100 g/ha preemergence) [%] | % Injury ([12]; WM 82, 300 g/ha preemergence) [%] | % Injury ([13]; W20, 1 g/ha preemergence) [%] | % Injury ([13]; W20, 3 g/ha preemergence) [%] | also measured
1 | COC(=O)c1sccc1S(=O)(=O)NC(=O)Nc1nc(C)nc(OC)n1 [Compound 2, Methyl 3-[[[[(4-methoxy-6-methyl-1,3,5-triazine-2-yl)amino]carbonyl]amino]sulfonyl]-2-thiophenecarboxylate] | 5 | 5 | 0 | 3 | 0 | 5 | 0 | 8 | 0 | 6 | 0 | 5 |  |  |  |  |  |  |  |  | mean % injury ([1]; W19, 8 g/ha postemergence): 0%; mean % injury ([1]; W19, 32 g/ha postemergence): 7%; mean % injury ([2]; 8 g/ha postemergence): 13%; mean % injury ([2]; 32 g/ha postemergence): 58%; mean % injury ([3]; WM 82, 8 g/ha postemergence): 13%; mean % injury ([3]; WM 82, 32 g/ha postemergence): 63%; mean % injury ([4]; W20, 8 g/ha postemergence): 0%; mean % injury ([4]; W20, 32 g/ha postemergence): 6%; soybean crop injury at 16 g/ha ([6]; Wm 82, 16 g/ha postemergence): 70%; soybean crop injury at 64 g/ha ([6]; Wm 82, 64 g/ha postemergence): 91%
2 | COC(=O)c1ccccc1S(=O)(=O)NC(=O)Nc1nc(C)cc(C)n1 [Compound 4, Methyl 2-[[[[(4,6-dimethyl-2-pyrimidinyl)amino]carbonyl]amino]sulfonyl]benzoate] |  |  |  |  |  |  |  |  |  |  |  |  | 55 | 88 | 97 | 98 | 100 | 100 | 0 | 0 | % Injury ([12]; WM 82, 0.3 g/ha preemergence): 33%; % Injury ([13]; W20, 0.3 g/ha preemergence): 0%; % Injury ([13]; W20, 10 g/ha preemergence): 17%; % Injury ([13]; W20, 30 g/ha preemergence): 68%; % Injury ([13]; W20, 100 g/ha preemergence): 90%; % Injury ([13]; W20, 300 g/ha preemergence): 95%; percent crop injury at 0.5 g/ha ([5]; W20, 0.5 g/ha postemergence): 0%; percent crop injury at 2 g/ha ([5]; W20, 2 g/ha postemergence): 6%; pest or weed control at 0.5 g/ha ([6]; read-out: mean % injury): 58%; pest or weed control at 2 g/ha ([6]; read-out: mean % injury): 95%; soybean crop injury (%) at 0.5 g/ha ([7]; W17, 0.5 g/ha postemergence): 3%; soybean crop injury (%) at 2 g/ha ([7]; W17, 2 g/ha postemergence): 0%; % crop injury at 0.5 g/ha ([8]; W4, 0.5 g/ha postemergence): 10%; % crop injury at 2 g/ha ([8]; W4, 2 g/ha postemergence): 8%; percent soybean injury at 0.5 g/ha ([9]; W23, 0.5 g/ha postemergence): 8%; percent soybean injury at 2 g/ha ([9]; W23, 2 g/ha postemergence): 11%; percent soybean crop injury at 0.5 g/ha ([10]; W19, 0.5 g/ha postemergence): 3%; percent soybean crop injury at 2 g/ha ([10]; W19, 2 g/ha postemergence): 18%; mean % injury to soybean at 0.5 g/ha ([11]; W28, 0.5 g/ha postemergence): 0%; mean % injury to soybean at 2 g/ha ([11]; W28, 2 g/ha postemergence): 18%
3 | CCOC(=O)c1ccccc1S(=O)(=O)NC(=O)Nc1nc(Cl)cc(OC)n1 [Compound 5, Ethyl 2[[[[(4-chloro-6-methoxy-2-pyrimidinyl)amino]carbonyl]amino]sulfonyl]benzoate] | 0 | 0 | 0 | 0 | 6 | 0 | 0 | 10 | 0 | 20 | 0 | 0 | 0 | 0 | 0 | 15 | 47 | 68 | 0 | 0 | % Injury ([12]; WM 82, 1000 g/ha preemergence): 92%; % Injury ([13]; W20, 10 g/ha preemergence): 0%; % Injury ([13]; W20, 30 g/ha preemergence): 3%; % Injury ([13]; W20, 100 g/ha preemergence): 10%; % Injury ([13]; W20, 300 g/ha preemergence): 15%; % Injury ([13]; W20, 1000 g/ha preemergence): 35%; pest or weed control at 16 g/ha ([6]; read-out: mean % injury): 40%; pest or weed control at 64 g/ha ([6]; read-out: mean % injury): 58%
4 | COc1cc(OC)nc(NC(=O)NS(=O)(=O)c2ncccc2C(=O)N(C)C)n1 [Compound 6, 2-[[[[(4,6-dimethoxy-2-pyrimidinyl)amino]carbonyl]amino]sulfonyl]N,N-dimethyl-3-pyridinecarboxamide] | 3 | 38 | 0 | 40 | 4 | 43 | 5 | 54 | 8 | 48 | 0 | 45 |  |  |  |  |  |  |  |  | mean % injury ([14]; W4-4, 64 g/ha postemergence): 0%; mean % injury ([14]; W4-4, 125 g/ha postemergence): 8%; mean % injury ([15]; WM82, 64 g/ha postemergence): 60%; mean % injury ([15]; WM82, 125 g/ha postemergence): 68%; mean % injury ([16]; W20, 64 g/ha postemergence): 10%; mean % injury ([16]; W20, 125 g/ha postemergence): 28%; pest or weed control at 16 g/ha ([6]; read-out: mean % injury): 25%; pest or weed control at 64 g/ha ([6]; read-out: mean % injury): 66%
